Results on 14 compounds are retold here after patent publication US4889953A, “Glycerol derivatives, their production and use” (Takeda Chemical Industries, Ltd., priority 1986, dated 1989).

The test system of test [1] is Platelet aggregation caused by PAF. Nature of the test: Inhibition of PAF-induced platelet aggregation in rabbit PRP (Test Example 5). It is filed as cell-based. Conditions: Oryctolagus cuniculus, PAF 1×10^-8 M, read-out: inhibition ratio (%) of PAF-induced platelet aggregation; for inhibition at 30 µM: 3 × 10^-5 M; for inhibition at 3 µM: 3 × 10^-6 M; for inhibition at 0.3 µM: 3 × 10^-7 M. The protocol: Blood was collected directly from a male rabbit, using a syringe containing 3.15% of citric acid (at a ratio of 1 part to 9 parts of blood) as an anticoagulant, and centrifuged at 800 rpm for 10 minutes at room temperature to obtain platelet rich plasma (PRP). The remaining blood was centrifuged further at 3000 rpm for 10 minutes to obtain platelet poor plasma (PPP) as the supernatant. By dilution of PRP with PPP, the platelet count was adjusted to about 500,000 cells/μl. After 250 μl of the resulting PRP was stirred at 37° C. for 2 minutes, a certain amount of the test compound was added, and the mixture was stirred for further 2 minutes, and then 1×10^-8 M of PAF was added. Platelet aggregation was measured by using a platelet aggregometer (manufactured by Rika Denki Co. in Japan). The aggregation-inhibiting activity of a test compound was determined from the inhibition ratio against maximal transmittance (maximal aggregation ratio) caused by PAF in the control PRP.

Test [2] relates to Sarcoma 180 cells. Briefly: Antitumor action, Sarcoma 180 intraperitoneal in ICR mice, life-span and survivors on 40th day (Test Example 1). It is filed as in vivo. Particulars: 0.33 mg/mouse i.p. three times; for Life-span prolongation ratio (T/C, %): only related to mice found dead. The protocol:
Antitumor action of the compounds in Working Examples
ICR mice (a group consisting of five mice) were inoculated intraperitoneally with 1×10^5 Sarcoma 180 cells per mouse, and then given intraperitoneally 0.33 mg/mouse of a compound dissolved in physiological saline, three times, i.e. 1 hour, 1 day and 2 days after inoculation. Reference compound IV, Va or Vb was given to mice under the same conditions. Shown in Table 1 are the life-span prolongation ratio against the untreated control group and the number of survived mice on the 40th day after the initiation of the test.

Test [3] has as its system Sarcoma 180 cells. Briefly: Antitumor action, Sarcoma 180 intraperitoneal in ICR mice, life-span and survivors on 60th day (Test Example 6). It is filed as in vivo. Conditions: Sarcoma-180, ip, 1440 h; for response vs control in vivo at 0.33 mg: read-out: Life-span prolongation ratio (T/C). The protocol:
(§1) Antitumor action of the compounds of Working Examples
ICR mice (a group consisting of five mice) were inoculated intraperitoneally with 1×10^5 Sarcoma 180 cells per mouse, and then given intraperitoneally 0.33 mg/mouse of a compound dissolved in physiological saline, three times, i.e. 1 hour, 1 day and 2 days after inoculation. Shown in Table 6 are the life-span prolongation ratio against the untreated control group and the number of survived mice on the 60th day after the initiation of the test.

Test [4] relates to Sarcoma 180 cells. Nature of the test: Antitumor action, Sarcoma 180 subcutaneous in ICR mice, intravenous dosing, tumor proliferation inhibition (Test Example 7). It is filed as in vivo. Conditions: 0.3 mg/mouse i.v. 9 times; tumor weight after 21 days. The protocol:
as §1
ICR mice (a group consisting of 5 mice) were inoculated subcutaneously with 1×10^5 Sarcoma 180 cells per mouse, and given intravenously 0.3 mg/mouse of a compound of a Working Example dissolved in physiological saline 9 times in total, i.e. 8, 9, 10, 13, 14, 15, 16, 17, and 20 days after inoculation. After 21 days, the tumor tissue was extirpated and the tumor weight was weighed. Shown in Table 7 is tumor proliferation inhibition ratio as compared with the untreated control group.

Test [5] has as its system mouse mammary carcinoma cells MM46. Nature of the test: Antitumor action, MM46 intraperitoneal in C3H mice, life-span and survivors on 60th day (Test Example 8). Conditions: for Life-span prolongation ratio (T/C, %): mice found dead only. It is filed as in vivo.
Excerpt: as §1
C3H mice (a group consisting of 5 mice) were inoculated intraperitoneally with 1×10^4 mouse mammary carcinoma cells MM46 per mouse, […] saline once a day for 4 consecutive days starting from the second day after inoculation. Shown in Table 8 are the life-span prolongation ratio against the untreated control group and the number of survived mice on the 60th day after initiation of the test.

Test [6] shares this test system. Nature of the test: Antitumor action, MM46 intraperitoneal in C3H mice, life-span and survivors on 40th day (Test Example 3). It is filed as in vivo. Conditions: 0.25 mg/mouse once a day for 4 days. As for the experimental part:
(§2) Antitumor action of the compound of Working Example 8
C3H mice (a group consisting of 5 mice) were inoculated intraperitoneally with 1×10^4 mouse mammary carcinoma cells MM46 per mouse, and given 0.25 mg/mouse of the compound of Working Example 8 dissolved in physiological saline once a day for 4 consecutive days starting from the second day after the inoculation. The Reference compound (IV) was given under the same conditions. Shown in Table 3 are the life-span prolongation ratio against the untreated control group and the number of survived mice on the 40th day after initiation of the test.

For test [7], the system named is Sarcoma 180 cells. Briefly: Antitumor action, Sarcoma 180 subcutaneous in ICR mice, oral dosing (Test Example 9). It is filed as in vivo. Particulars: 0.3 mg/mouse orally eight times, after 20 days. As for the experimental part:
Antitumor action of the compounds of Working Examples 8 and 24
ICR mice (a group consisting of 5 mice) were inoculated subcutaneously at the dorsolateral area with […] 1×10^6 Sarcoma 180 cells per mouse, and given orally 0.3 mg/mouse of the compound of Example 8 or the compound of Example 24 eight times in total, i.e. 8th, 9th, 10th, 13th, 14th, 15th, 16th, and 17th day after inoculation. After 20 days the tumor tissue was extirpated and the tumor weight was weighed. Shown in Table 9 is tumor proliferation inhibition ratio against the untreated control.

Test [8] deals with Sarcoma 180 cells. Nature of the test: Antitumor action, Sarcoma 180 subcutaneous in ICR mice, intravenous dosing, tumor proliferation inhibition (Test Example 2). It is filed as in vivo. Conditions: tumor weight after 21 days. The protocol: as §2
ICR mice (a group consisting of 5 mice) were inoculated subcutaneously with 1×10^6 Sarcoma 180 cells per mouse, and given intravenously 0.03 mg/mouse or 0.3 mg/mouse of the compound of Working Example 8 dissolved in physiological saline 9 times in total, i.e. 8, 9, 10, 13, 14, 15, 16, 17, and 20 days after inoculation. The Reference compound (IV), 0.3 mg/mouse, was given under the same conditions. After 21 days, the tumor tissue was extirpated and the tumor weight was weighed. Shown in Table 2 is tumor proliferation inhibition ratio as compared with the untreated control group.

[9] abbreviates: 0.33 mg/mouse i.p. three times, 60th day, read-out: No. of survivors/No. of mice tested (converted).
Where [10] appears, read: 0.33 mg/mouse i.p. three times, survivors on day 60 not included.
Where [11] appears, read: 0.25 mg/mouse once a day for 4 days.
Setting [12] is: 0.125 mg/mouse once a day for 4 days.

Where two headings read alike, the source gives them in different places.

`CCCCCCCCCCCCCCCCCCOCC(COCC[N+](C)(C)C)OC` (stereo not drawn) [Compound Va, reference compound]: in test [1], the inhibition at 30 µM is 27%, the inhibition at 3 µM is 0% and the inhibition at 0.3 µM stood at 0%. In addition, in the test on Sarcoma 180 cells [2], the “No. of survivors/No. of mice tested” value is 1/5 and the “Life-span prolongation ratio (T/C, %)” value came to 241%.
Consider `CCCCCCCCCCCCCCCCCCOCC(COCCOCCOCC[N+](C)(C)C)OC(=O)CC(C)=O` (stereo not drawn) [Example 15, 2-[2-[2-[2-(Acetoacetyloxy)-3-(octadecyloxy)propyloxy]ethoxy]ethoxy]ethyltrimethylammonium chloride], for which, in test [1], the inhibition at 30 µM worked out at 100% and the inhibition at 3 µM was found to be 43%. In addition, in the test with Sarcoma 180 cells [2], the “No. of survivors/No. of mice tested” value was 4/5 and the “Life-span prolongation ratio (T/C, %)” value was 291%.
For `CNC(=S)OC(COCCCCCCCCCCCCC1CCCCC1)COCCOCC[N+](C)(C)C` (stereo not drawn) [Example 43, 2-[2-[3-(12-Cyclohexyl)dodecyloxy-2-N-methylthiocarbamoyloxypropyloxy]ethoxy]ethyltrimethylammonium chloride], in the test on Sarcoma 180 cells [3] (setting [9]), the responders at 0.33 mg is 20%. For the same compound, the response vs control in vivo at 0.33 mg in the test with Sarcoma 180 cells [3] (setting [10]) came out at 323%.
With `C[N+](C)(C)CCOCCOCC(COCCCCCCCCCCCCC1CCCCC1)OCC(=O)[O-]` (stereo not drawn) [Example 66, 3-(12-Cyclohexyldodecyloxy)methyl-10-trimethylammonio-2,5,8-trioxadecane carboxylate], the responders at 0.33 mg in the test on Sarcoma 180 cells [3] (setting [9]) was 0%. Moreover, in the test on Sarcoma 180 cells [3] (setting [10]), the response vs control in vivo at 0.33 mg was 235%.
The corresponding values for `CCCCCCCCCCCCCCCCCCOCC(COCCOCC[N+](C)(C)C)OCC1CO1` (stereo not drawn) [Example 47, 2-[2-[2-(2,3-Epoxypropyloxy)-3-(octadecyloxy)propyloxy]ethoxy]ethyltrimethylammonium chloride] are 20% and 237%.
Turning to `CC(=O)CC(=O)OC(COCCCCCCCCCCCCC1CCCCC1)COCCOCC[N+](C)(C)C` (stereo not drawn) [Example 26, 2-[2-[2-Acetoacetyloxy-3-(12-cyclohexyl)dodecyloxypropyloxy]ethoxy]ethyltrimethylammonium chloride], in the test on Sarcoma 180 cells [3] (setting [9]), the responders at 0.33 mg was 0%. Moreover, in the test on Sarcoma 180 cells [3] (setting [10]), the response vs control in vivo at 0.33 mg was 295%. Further, the “Inhibition ratio (1-T/C) (%)” value with Sarcoma 180 cells [4] amounted to 60%.
Turning to `COC(COCCOCC[N+](C)(C)C)COCCC(C)CCCC(C)CCCC(C)CCCC(C)C` (stereo not drawn) [Example 59, 2-[2-[2-Methoxy-3-(3,7,11,15-tetramethylhexadecyloxy)propyloxy]ethoxy]ethyltrimethylammonium chloride], the responders at 0.33 mg in the test with Sarcoma 180 cells [3] (setting [9]) was 0%. Moreover, the response vs control in vivo at 0.33 mg in the test with Sarcoma 180 cells [3] (setting [10]) came to 224%.
Consider `CCCCCCCCCCCCCCCCCCOCC(COCCOCC[N+](C)(C)C)OCC(C)=O` (stereo not drawn) [Example 29, 2-[2-[3-(Octadecyloxy)-2-(2-oxopropyloxy)propyloxy]ethoxy]ethyltrimethylammonium chloride], for which, in the test with Sarcoma 180 cells [3] (setting [9]), the responders at 0.33 mg was 60%. For the same compound, in the test on Sarcoma 180 cells [3] (setting [10]), the response vs control in vivo at 0.33 mg turned out to be 220%.
Regarding `CCCCCCCCCCCCCCCCCCOCC(COCCOCC[N+](C)(C)C)OC(=O)CC(C)=O.[Cl-]` (stereo not drawn) [Example 12, 2-[2-[2-(Acetoacetyloxy)-3-(octadecyloxy)propyloxy]ethoxy]ethyltrimethylammonium chloride], the responders at 0.33 mg in the test with Sarcoma 180 cells [3] (setting [9]) was 40%. The response vs control in vivo at 0.33 mg with Sarcoma 180 cells [3] (setting [10]) came out at 292%. Further, the “No. of survivors/No. of mice tested” value in test [5] (setting [11]) was 3/5; in test [5] (0.5 mg/mouse once a day for 4 days) it was 5/5. Further, the “Life-span prolongation ratio (T/C, %)” value in test [5] (setting [11]) was 126%.
As for `CCCCCCCCCCCCCCCCCCOCC(COCCCC[N+](C)(C)C)OC` (stereo not drawn) [Compound Vb, reference compound], in test [1], the inhibition at 30 µM amounted to 97%, the inhibition at 3 µM worked out at 5% and the inhibition at 0.3 µM is 0%. Further, in the test on Sarcoma 180 cells [2], the “No. of survivors/No. of mice tested” value is 0/5 and the “Life-span prolongation ratio (T/C, %)” value was determined as 291%.
The matching figures for `CCCCCCCCCCCCCCCCCCOCC(COCCOCCOCC[N+](C)(C)C)OC` (stereo not drawn) [Example 9, 2-[2-[2-[2-Methoxy-3-(octadecyloxy)propyloxy]ethoxy]ethoxy]ethyltrimethylammonium chloride]: 100%, 66%, 3%, 1/5 and 247%.
Consider `CCCCCCCCCCCCCCCCCCOCC(COCCOCC[N+](C)(C)C)OC` (stereo not drawn) [Example 8, 2-[2-[2-Methoxy-3-(octadecyloxy)propyloxy]ethoxy]ethyltrimethylammonium chloride], for which the inhibition at 30 µM in test [1] was determined as 100%. The inhibition at 3 µM in test [1] was found to be 38%. Further, in test [1], the inhibition at 0.3 µM amounted to 18%. For the same compound, the “No. of survivors/No. of mice tested” value in test [6] is 5/5; in test [5] (setting [12]), 2/5; in test [5] (setting [11]) it was 3/5; in the test on Sarcoma 180 cells [2], 5/5. Besides, the figures for the “Life-span prolongation ratio (T/C, %)” value in test [5] (setting [12]) and in test [5] (setting [11]) were 144% and 315%, respectively. Moreover, in the test with Sarcoma 180 cells [7], the “Weight of tumor” value was 0.35 ± 0.04 g. The “Inhibition ratio (%)” value in the test on Sarcoma 180 cells [7] (against untreated control) came to 75%. Further, the “Inhibition ratio (1-T/C) (%)” value in the test on Sarcoma 180 cells [8] (0.03 mg/mouse i.v. 9 times) and in the test with Sarcoma 180 cells [8] (0.3 mg/mouse i.v. 9 times) was 65% throughout.
On to `CCCCCCCCCCCCCCCCCCOCC(COCCOCC[N+](C)(C)C)OC(=S)NC` (stereo not drawn) [Example 42, 2-[2-[2-(Methylthiocarbamoyloxy)-3-(octadecyloxy)propyloxy]ethoxy]ethyltrimethylammonium chloride], for which the responders at 0.33 mg with Sarcoma 180 cells [3] (setting [9]) is 0%. The response vs control in vivo at 0.33 mg in the test on Sarcoma 180 cells [3] (setting [10]) came out at 340%.
`COC(COCCCCCCCCCCCC(F)(F)C(F)(F)C(F)(F)C(F)(F)C(F)(F)C(F)(F)C(F)(F)C(F)(F)F)COCCOCC[N+](C)(C)C` (stereo not drawn) [Example 51, 2-[2-[2-Methoxy-3-(12,12,13,13,14,14,15,15,16,16, 17,17,18,18,19,19,19-heptadecafluorononadecyloxy)propyloxy)ethoxy]ethyltrimethylammonium chloride]: the response vs control in vivo at 0.33 mg in the test with Sarcoma 180 cells [3] (Mus musculus) was 295%. Besides, the responders at 0.33 mg in the test with Sarcoma 180 cells [3] (Mus musculus, read-out: No. of survivors/No. of mice tested) came to 0%.
